Tests used:
TRBP = target: T1, TRBP (Homo sapiens, UniProt Q15633); test: Cellular thermal shift assay of TRBP (HEK-293T lysates, Western blot); type: binding; set-up: endogenous in cells; host or cells: HEK-293T
T1 sequence (Q15633 1-366): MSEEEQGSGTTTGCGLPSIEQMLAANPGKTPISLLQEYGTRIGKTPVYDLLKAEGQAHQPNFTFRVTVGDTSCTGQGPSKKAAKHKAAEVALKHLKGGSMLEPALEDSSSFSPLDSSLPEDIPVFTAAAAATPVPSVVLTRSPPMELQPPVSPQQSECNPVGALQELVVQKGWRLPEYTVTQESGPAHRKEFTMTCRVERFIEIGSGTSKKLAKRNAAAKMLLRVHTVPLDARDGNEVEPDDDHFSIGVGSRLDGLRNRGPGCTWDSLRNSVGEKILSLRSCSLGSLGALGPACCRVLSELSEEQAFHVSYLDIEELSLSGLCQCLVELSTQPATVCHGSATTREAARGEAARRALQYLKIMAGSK
Method: HEK-293T cells were harvested in PBS supplemented with protease inhibitor cocktail (complete, EDTA-free, Roche). Cell suspensions were freeze-thawed three times in liquid nitrogen and then centrifuged (20 000g) for 10 min at 4 °C. The lysates were diluted at concentration of 2 μg μL^−1 and then treated with DMSO and 50 μM of 33 or with increasing concentration of 33 for 30 min at 37 °C. After this incubation the lysates were divided into equal parts (50 μL) and heated individually at designated temperatures for 3 min. The heated samples were cooled at room temperature for 3 min and centrifuged (20 000g) for 10 min at 4 °C. The supernatants were transferred to new tubes and analyzed by use for western blotting.
Lysates were loaded on 4–12% bis–tris-acrylamide gel (Life Technologies) and transferred to a nitrocellulose membrane. The membrane was blocked in 5% milk and hybridized with α-TRBP (15753-1-AP Proteintech), α-GAPDH (sc-25778, Santa Cruz Biotechnology), α-c-PARP (Bioss Antibodies, BSM-52408R), α-BCLXL (mAb #2764, Cell Signaling Technology) and α-β-actin (A3854, Sigma) antibodies. All the images were captured using the ChemiDocTM Touch Imaging System (Bio-Rad), and the densitometric analyses were performed using the associated Image Lab software (Bio-Rad).

hTopI = target: T2, hTopI (Homo sapiens, UniProt P11387); test: Detection of hTOP1 cleavage complexes (cleavage assay); type: cell-based; details: 100 μM
T2 construct: endogenous in cells
T2 sequence (P11387 whole entry): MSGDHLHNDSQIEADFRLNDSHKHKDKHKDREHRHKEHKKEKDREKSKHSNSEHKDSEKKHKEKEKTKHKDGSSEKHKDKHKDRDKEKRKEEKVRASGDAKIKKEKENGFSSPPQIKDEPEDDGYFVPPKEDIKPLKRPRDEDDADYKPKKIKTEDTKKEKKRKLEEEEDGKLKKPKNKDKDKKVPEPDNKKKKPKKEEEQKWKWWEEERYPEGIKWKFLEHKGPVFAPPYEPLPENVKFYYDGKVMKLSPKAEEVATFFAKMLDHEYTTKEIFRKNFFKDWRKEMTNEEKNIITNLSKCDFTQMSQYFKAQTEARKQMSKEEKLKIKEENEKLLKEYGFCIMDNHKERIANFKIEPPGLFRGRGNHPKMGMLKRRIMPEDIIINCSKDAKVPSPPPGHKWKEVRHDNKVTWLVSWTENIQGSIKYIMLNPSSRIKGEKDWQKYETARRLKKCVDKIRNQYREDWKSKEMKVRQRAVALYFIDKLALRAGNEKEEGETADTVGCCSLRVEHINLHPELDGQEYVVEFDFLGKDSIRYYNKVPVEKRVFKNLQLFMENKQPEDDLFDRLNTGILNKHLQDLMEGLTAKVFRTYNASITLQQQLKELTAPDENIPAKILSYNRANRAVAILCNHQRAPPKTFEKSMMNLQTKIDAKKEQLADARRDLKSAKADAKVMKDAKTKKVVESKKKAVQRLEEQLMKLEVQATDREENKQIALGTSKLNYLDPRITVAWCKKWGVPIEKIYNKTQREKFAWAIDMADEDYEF
Method: (§1) After compound treatments, 1 × 10^6 human cells in 35 mm dish per sample were washed with 1× phosphate-buffered saline (PBS) and lysed with 600 μL of DNAzol (Invitrogen), followed by precipitation with 300 μL of 200 proof ethanol. The nucleic acids were collected, washed with 75% ethanol, resuspended in 200 μL of TE buffer, and then heated at 65 °C for 15 min, followed by shearing with sonication (40% output for 10 s pulse and 10 s rest for four times). The samples were centrifuged at 15 000 rpm for 5 min at 4 °C, and the supernatant were collected. 1 μL of each sample was removed for spectrophotometric measurement of absorbance at 260 nm to quantitate DNA content (NanoDrop). 2 μg of each sample was subjected to slot-blot for immunoblotting using anti-hTOP1 antibody (BD Pharmingen, 556597) and anti-hTOP2α antibody (Santa Cruz biotechnology, 365916).[51]

hTopII = target: T3, hTopII (Homo sapiens, UniProt P11388); test: Detection of hTOP2α cleavage complexes (cleavage assay); type: cell-based; details: 100 μM
T3 construct: endogenous in cells
T3 sequence (P11388 whole entry): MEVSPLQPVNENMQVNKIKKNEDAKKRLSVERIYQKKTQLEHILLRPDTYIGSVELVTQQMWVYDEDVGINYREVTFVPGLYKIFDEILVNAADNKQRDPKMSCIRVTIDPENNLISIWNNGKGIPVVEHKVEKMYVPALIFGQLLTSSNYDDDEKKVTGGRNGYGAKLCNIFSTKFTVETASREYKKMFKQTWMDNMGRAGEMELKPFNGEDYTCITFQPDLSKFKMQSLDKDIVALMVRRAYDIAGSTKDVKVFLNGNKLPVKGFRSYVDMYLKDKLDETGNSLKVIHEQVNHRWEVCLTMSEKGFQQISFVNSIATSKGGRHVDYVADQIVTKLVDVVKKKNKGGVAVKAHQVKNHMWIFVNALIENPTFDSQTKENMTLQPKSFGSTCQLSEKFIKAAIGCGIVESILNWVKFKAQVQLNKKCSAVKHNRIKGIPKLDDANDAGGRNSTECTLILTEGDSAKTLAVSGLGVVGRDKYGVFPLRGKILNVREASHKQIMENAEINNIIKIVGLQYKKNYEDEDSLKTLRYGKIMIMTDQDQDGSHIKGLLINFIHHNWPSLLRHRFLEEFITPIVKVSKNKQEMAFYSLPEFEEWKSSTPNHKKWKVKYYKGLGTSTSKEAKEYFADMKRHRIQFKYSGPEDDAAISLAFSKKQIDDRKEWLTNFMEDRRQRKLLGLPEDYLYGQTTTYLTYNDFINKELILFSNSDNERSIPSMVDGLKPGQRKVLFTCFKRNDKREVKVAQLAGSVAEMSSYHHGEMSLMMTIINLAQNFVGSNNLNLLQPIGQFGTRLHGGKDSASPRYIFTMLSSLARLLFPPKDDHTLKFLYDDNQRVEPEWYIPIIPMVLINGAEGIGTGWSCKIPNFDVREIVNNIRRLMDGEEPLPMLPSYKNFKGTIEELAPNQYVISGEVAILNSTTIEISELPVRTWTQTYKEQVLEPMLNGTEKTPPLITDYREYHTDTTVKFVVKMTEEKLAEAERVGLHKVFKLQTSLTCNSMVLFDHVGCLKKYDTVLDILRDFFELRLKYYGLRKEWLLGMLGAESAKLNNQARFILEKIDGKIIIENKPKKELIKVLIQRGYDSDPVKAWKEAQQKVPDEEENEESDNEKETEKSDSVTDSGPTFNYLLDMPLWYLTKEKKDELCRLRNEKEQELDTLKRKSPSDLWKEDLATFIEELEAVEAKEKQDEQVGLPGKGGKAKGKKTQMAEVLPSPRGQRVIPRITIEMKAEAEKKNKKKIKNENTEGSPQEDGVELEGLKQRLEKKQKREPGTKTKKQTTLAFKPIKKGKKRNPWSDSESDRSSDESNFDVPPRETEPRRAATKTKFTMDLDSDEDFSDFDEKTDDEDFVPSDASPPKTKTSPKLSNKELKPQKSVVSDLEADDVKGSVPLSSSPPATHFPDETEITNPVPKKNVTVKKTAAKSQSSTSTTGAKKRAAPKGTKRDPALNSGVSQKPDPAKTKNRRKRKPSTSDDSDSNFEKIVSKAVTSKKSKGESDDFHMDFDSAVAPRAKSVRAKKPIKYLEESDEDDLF
Method: as §1

WT SK-Hep-1 cells = test: Antiproliferative effect on WT SK-Hep-1 cells (CCK-8); type: cell-based, human; details: 48 hours
Method: (§2) HCCLM3 and SK-Hep-1 cells were seeded into 96-well plates at a density of 10 000 cells per well and allowed to adhere overnight. Subsequently, the cells were treated with the following substances: 0.1% DMSO as the negative control, various concentrations of the test compounds, and 125 μM enoxacin as the positive control. After 48 h of incubation, the original culture medium was removed, and the cells were washed twice with PBS. Then, 100 μL of DMEM culture medium containing 10% CCK-8 (Bimake, USA) was added to each well. The plates were incubated for 30 minutes at 37 °C. To determine the […], measurements were taken at a wavelength of 450 nm using a Varioskan from Thermo Fisher Scientific.

SKOV-3 cell line = test: Antiproliferative effect against the SKOV-3 cell line (GI50, cell count); type: cell-based, human
Method: SKOV-3, A2780 and A2780 CIS were cultured and maintained, as previously described,[50] at 37 °C in RPMI 1640 medium (Euroclone) supplemented with 10% fetal bovine serum (FBS; Euroclone), L-glutamine and penicillin/streptomycin (SIGMA-ALDRICH). OVCA433, HEK-293T, HeLa, HCCLM3, SK-Hep-1, MCF-7, A549 and HCT-116 cells were maintained in DMEM medium (Euroclone) containing 10% FBS (Euroclone), L-glutamine and penicillin/streptomycin (SIGMA-ALDRICH). Wi-38 cells were cultured in DMEM medium (Euroclone) supplemented with 10% FBS (Euroclone), L-glutamine and penicillin/streptomycin (SIGMA-ALDRICH), and 1% non-essential amino acids (NEAA; Euroclone). The cultures were maintained in a constant temperature incubator at 37 °C with 5% CO2. […] Once cell adhesion had been promoted, the compounds were added to the culture medium. After 72 hours of treatment, the cells were counted, and the data analyzed by linear regression. Each experiment was carried out three times in triplicate and three separate cell counts were made for each sample. […] Afterwards, the concentration range was narrowed to the relative value obtained in the first evaluation in order to obtain an accurate value.

miR-21 = miR-21 expression in HeLa cells (qRT-PCR); type: cell-based, human; details: 50 μM, 6 hours
Method: Total RNA was extracted using the Direct-zol RNA MiniPrep kit (Zymo Research) with on-column DNase treatment, according to the manufacturer's instructions. Reverse transcription was carried out with SuperScript VILO cDNA Synthesis Kit (Life Technologies) and the cDNA samples were analyzed by qRT-PCR using PowerUp SYBR Green Master Mix (Thermo Fisher Scientific). For miR-21 expression analysis total RNA was retrotranscribed using miRCURY® LNA® RT Kit (Qiagen) and the cDNA was analyzed by using miRCURY® LNA® miRNA PCR Assay (Qiagen). The oligonucleotides used are the following: GAPDH_FW […]; GAPDH_REV […]; ATP5O_FW […]; ATP5O_REV […]; hsa-miR-21-5p miRCURY LNA miRNA PCR Assay (YP00204230); U6 snRNA (v2) miRCURY LNA miRNA PCR Assay (YP02119464).

KO TRBP HCCLM3 cells = test: Antiproliferative effect on KO TRBP HCCLM3 cells (CCK-8); type: cell-based, human; details: 30 μM, 48 hours
Method: as §2

thermal shift of TRBP versus DMSO (TRBP; 50 μM, different temperatures): significant thermal shift | trapping/inhibition of hTopI (cleavage assay) (hTopI): no inhibition or trapping activity | trapping/inhibition of hTopII (cleavage assay) (hTopII): no inhibition or trapping activity | GI50 (SKOV-3 cell line; Homo sapiens, SK-OV-3, 72 h, 50% cell growth inhibition, 72 hours of treatment, cell count, ND = activity not dose dependent): 13.5 ± 1.45 µM | GI50 SKOV-3, fold lower than enoxacin (SKOV-3 cell line; versus enoxacin): about 9 fold
Structure (SMILES): O=C(O)c1cn(C2CC2)c2cc(N3CCc4ccccc4C3)c(F)cc2c1=O [Compound 33, 1-Cyclopropyl-7-(3,4-dihydroisoquinolin-2(1H)-yl)-6-fluoro-4-oxo-1,4-dihydroquinoline-3-carboxylic acid]
concentration dependency of TRBP destabilization (TRBP; increasing concentration, 55 °C): destabilization of TRBP in a concentration-dependent manner | antiproliferative effect on WT TRBP SK-Hep-1 cells (WT SK-Hep-1 cells; 30 μM): less evident | viability of WT SK-Hep-1 cells (WT SK-Hep-1 cells; 50 μM): significantly reduced the viability | miR-21 level in HeLa cells (miR-21): Upregulation of miR-21 | antiproliferative effect on KO TRBP HCCLM3 cells (KO TRBP HCCLM3 cells): no antiproliferative effect

— article PMC11467779, “New anti-ovarian cancer quinolone derivatives acting by modulating microRNA processing machinery” (RSC Medicinal Chemistry, 2024)
